According to patent US9169215B2, “LPAR—substituted cyanopyrazole compounds” (Hoffmann-La Roche Inc., priority 2012, dated 2015):

How the values were obtained:
[1] = target: human recombinant LPA1 Lysophospholipid receptor (Homo sapiens, UniProt Q92633); experiment: Calcium flux assay using FLIPR, LPA1 antagonist activity; type: cell-based; settings: for IC50: ChemiScreen calcium-optimized stable cell line, inhibition of agonist-induced calcium flux
Protocol: (§1) Calcium Flux Assay Using Fluorometric Imaging Plate Reader (FLIPR)
Cell Culture Conditions: The ChemiScreen Calcium-optimized stable cell line containing the human recombinant LPA1 Lysophospholipid receptor was purchased from Chemicon International, Inc./Millipore. The cells were cultured in DMEM-high glucose supplemented with 10% fetal bovine serum, 2 mM glutamine, 100 U/mL penicillin/100 μg/mL streptomycin, 1× non-essential amino acids, 10 mM HEPES and 0.25 mg/mL Geneticin. Cells were harvested with trypsin-EDTA and counted using ViaCount reagent. The cell suspension volume was adjusted to 2.0×10^5 cells/mL with complete growth media. Aliquots of 50 μL were dispensed into 384 well black/clear tissue culture treated plates (BD) and the microplates were placed in a 37° C. incubator overnight. The following day plates were used in the assay.
Dye Loading and Assay: Loading Buffer (FLIPR Calcium-4, Molecular Devices) was prepared by dissolving the contents of one bottle into 100 mL Hank's Balanced Salt Solution containing 20 mM HEPES and 2.5 mM probenecid. Plates were loaded onto Biotek plate washer and growth media was removed and replaced with 20 μL of Hank's Balanced Salt Solution containing 20 mM HEPES and 2.5 mM probenecid, followed by 25 μL of Loading Buffer. The plates were then incubated for 30 minutes at 37° C.
During the incubation, test compounds were prepared by adding 90 μL of HBSS/20 mM HEPES/0.1% BSA buffer to 2 μL of serially diluted compounds. To prepare serial dilutions, 10 mM stocks of compounds were prepared in 100% DMSO. The compound dilution plate was set up as follows: well #1 received 29 μL of stock compound and 31 μL DMSO; wells 2-10 received 40 μL of DMSO; mixed and transferred 20 μL of solution from well #1 into well #2; continued with 1:3 serial dilutions out 10 steps; transferred 2 μL of diluted compound into duplicate wells of 384 well “assay plate” and then added the 90 μL of buffer.
(§2) After incubation, both the cell and “assay” plates were brought to the FLIPR and 20 μL of the diluted compounds were transferred to the cell plates by the FLIPR. Compound addition was monitored by FLIPR to detect any agonist activity of the compounds. Plates were then incubated for 30 minutes at RT protected from light. After the incubation, plates were returned to the FLIPR and 20 μL of 4.5× concentrated agonist was added to the cell plates. During the assay, fluorescence readings were taken simultaneously from all 384 wells of the cell plate every 1.5 seconds. Five readings were taken to establish a stable baseline, then 20 μL of sample was rapidly (30 μL/sec) and simultaneously added to each well of the cell plate. The fluorescence was continuously monitored before, during and after sample addition for a total elapsed time of 100 seconds. Responses (increase in peak fluorescence) in each well following agonist addition was determined. The initial fluorescence reading from each well, prior to ligand stimulation, was used as zero baseline value for the data from that well. The responses were expressed as % inhibition of the buffer control.

[2] = target: T1, LPA3 (Homo sapiens, UniProt Q9UBY5); experiment: Calcium flux assay using FLIPR, LPA3 antagonist activity; type: cell-based
T1 sequence (Q9UBY5 1-353): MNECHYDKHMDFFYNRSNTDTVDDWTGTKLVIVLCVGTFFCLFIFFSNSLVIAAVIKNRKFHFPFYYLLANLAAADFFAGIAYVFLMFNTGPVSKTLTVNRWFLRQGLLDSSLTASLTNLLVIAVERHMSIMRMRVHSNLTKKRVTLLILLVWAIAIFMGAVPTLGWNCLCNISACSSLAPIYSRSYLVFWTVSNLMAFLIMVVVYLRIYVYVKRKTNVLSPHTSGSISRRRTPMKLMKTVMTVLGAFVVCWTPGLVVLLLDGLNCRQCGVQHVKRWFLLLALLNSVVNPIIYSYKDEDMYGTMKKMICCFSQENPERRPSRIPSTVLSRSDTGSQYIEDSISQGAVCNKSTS
Protocol: as §1, §2

Chain of human recombinant LPA1 Lysophospholipid receptor (Q92633 whole entry): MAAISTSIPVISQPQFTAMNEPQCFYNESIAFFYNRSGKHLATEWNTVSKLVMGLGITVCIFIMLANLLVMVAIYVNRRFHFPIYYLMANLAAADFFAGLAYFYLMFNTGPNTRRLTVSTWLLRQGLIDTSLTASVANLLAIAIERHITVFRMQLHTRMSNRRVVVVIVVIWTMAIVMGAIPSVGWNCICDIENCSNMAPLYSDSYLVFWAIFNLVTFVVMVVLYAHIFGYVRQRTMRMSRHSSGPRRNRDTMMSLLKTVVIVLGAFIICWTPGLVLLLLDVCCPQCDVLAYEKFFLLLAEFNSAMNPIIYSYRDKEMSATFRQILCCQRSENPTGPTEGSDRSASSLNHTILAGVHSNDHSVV

Row | Compound | inhibition at 30 µM [1] [%] | IC50 [1] [nM] | inhibition at 30 µM [2] [%] | inhibition at 10 µM ([1]; @ 10 μM) [%] | inhibition at 5 µM ([1]; @ 5 μM) [%]
1 | COc1ccc(C(=O)/C(=N\C2CCCC2)n2ncc(C#N)c2N)c(OC)c1 [Example 1, (E)-5-Amino-1-(1-(cyclopentylimino)-2-(2,4-dimethoxyphenyl)-2-oxoethyl)-1H-pyrazole-4-carbonitrile] | 98 | 79.8 | 22 | – | –
2 | CCc1ccc(C(=O)/C(=N\C2CCCC2)n2ncc(C#N)c2N)cc1 [Example 2, (E)-5-Amino-1-(1-(cyclopentylimino)-2-(4-ethylphenyl)-2-oxoethyl)-1H-pyrazole-4-carbonitrile] | 100 | 586 | 13 | – | –
3 | N#Cc1cnn(/C(=N/C2CCCC2)C(=O)c2ccc(Br)cc2)c1N [Example 3, (E)-5-Amino-1-(1-(cyclopentylimino)-2-(4-bromophenyl)-2-oxoethyl)-1H-pyrazole-4-carbonitrile] | 96 | 2940 | < 1 | – | –
4 | COc1cc(F)ccc1C(=O)/C(=N\C1CCCC1)n1ncc(C#N)c1N [Example 4, (E)-5-Amino-1-(1-(cyclopentylimino)-2-(4-fluoro-2-methoxyphenyl)-2-oxoethyl)-1H-pyrazole-4-carbonitrile] | 49 | – | 3 | – | –
5 | COc1ccc(C(=O)/C(=N\C2CCCC2)n2ncc(C#N)c2N)c(F)c1 [Example 5, (E)-5-Amino-1-(1-(cyclopentylimino)-2-(2-fluoro-4-methoxyphenyl)-2-oxoethyl)-1H-pyrazole-4-carbonitrile] | 99.8 | 74 | < 5 | – | –
6 | COc1cc(OC)c(C(=O)/C(=N\C2CCCC2)n2ncc(C#N)c2N)cc1OC [Example 6, (E)-5-Amino-1-(1-(cyclopentylimino)-2-(2,4,5-trimethoxyphenyl)-2-oxoethyl)-1H-pyrazole-4-carbonitrile] | – | 3360 | 7.5 | 79.2 | –
7 | COc1cc2ccccc2cc1C(=O)/C(=N\C1CCCC1)n1ncc(C#N)c1N [Example 7, (E)-5-Amino-1-(1-(cyclopentylimino)-2-(3-methoxynaphthalen-2-yl)-2-oxoethyl)-1H-pyrazole-4-carbonitrile] | 77.5 | 806 | 2 | – | –
8 | COc1cc2c(cc1C(=O)/C(=N\C1CCCC1)n1ncc(C#N)c1N)CCC2 [Example 8, (E)-5-Amino-1-(1-(cyclopentylimino)-2-(6-methoxy-2,3-dihydro-1H-inden-5-yl)-2-oxoethyl)-1H-pyrazole-4-carbonitrile] | 78.4 | 825 | 19.1 | – | –
9 | COc1ccc(C(=O)/C(=N\C2CCCCC2)n2ncc(C#N)c2N)c(OC)c1 [Example 9, (E)-5-Amino-1-(1-(cyclohexylimino)-2-(2,4-dimethoxyphenyl)-2-oxoethyl)-1H-pyrazole-4-carbonitrile] | 84.9 | 510 | 29 | – | –
10 | COc1ccc(C(=O)/C(=N\C(C)C)n2ncc(C#N)c2N)c(OC)c1 [Example 10, (E)-5-Amino-1-(2-(2,4-dimethoxyphenyl)-1-(iso-propylimino)-2-oxoethyl)-1H-pyrazole-4-carbonitrile] | 88.2 | 111 | 21 | – | –
11 | COc1cc(OCc2ccccc2)ccc1C(=O)/C(=N\C1CCCC1)n1ncc(C#N)c1N [Example 11, (E)-5-Amino-1-(2-(4-benzyloxy-2-methoxyphenyl)-1-(cyclopentylimino)-2-oxoethyl)-1H-pyrazole-4-carbonitrile] | 48 | – | 23 | – | –
12 | COc1cc(C(=O)/C(=N\C2CCCC2)n2ncc(C#N)c2N)cc(OC)c1OC [Example 12, (E)-5-Amino-1-(1-(cyclopentylimino)-2-(3,4,5-trimethoxyphenyl)-2-oxoethyl)-1H-pyrazole-4-carbonitrile] | – | – | 14 | – | 13
